These compounds were tested against T1, NLRP3 inflammasome (Homo sapiens, UniProt Q96P20) (assay: NLRP3 inflammasome activation assay, IL-1 beta release, human monocyte-like cells, MSU stimulation). Conditions: PMA-differentiated, LPS-primed human monocyte-like cells; MSU 150 μg/ml 3 h; IL-1β by AlphaLISA.
T1 sequence (Q96P20 whole entry): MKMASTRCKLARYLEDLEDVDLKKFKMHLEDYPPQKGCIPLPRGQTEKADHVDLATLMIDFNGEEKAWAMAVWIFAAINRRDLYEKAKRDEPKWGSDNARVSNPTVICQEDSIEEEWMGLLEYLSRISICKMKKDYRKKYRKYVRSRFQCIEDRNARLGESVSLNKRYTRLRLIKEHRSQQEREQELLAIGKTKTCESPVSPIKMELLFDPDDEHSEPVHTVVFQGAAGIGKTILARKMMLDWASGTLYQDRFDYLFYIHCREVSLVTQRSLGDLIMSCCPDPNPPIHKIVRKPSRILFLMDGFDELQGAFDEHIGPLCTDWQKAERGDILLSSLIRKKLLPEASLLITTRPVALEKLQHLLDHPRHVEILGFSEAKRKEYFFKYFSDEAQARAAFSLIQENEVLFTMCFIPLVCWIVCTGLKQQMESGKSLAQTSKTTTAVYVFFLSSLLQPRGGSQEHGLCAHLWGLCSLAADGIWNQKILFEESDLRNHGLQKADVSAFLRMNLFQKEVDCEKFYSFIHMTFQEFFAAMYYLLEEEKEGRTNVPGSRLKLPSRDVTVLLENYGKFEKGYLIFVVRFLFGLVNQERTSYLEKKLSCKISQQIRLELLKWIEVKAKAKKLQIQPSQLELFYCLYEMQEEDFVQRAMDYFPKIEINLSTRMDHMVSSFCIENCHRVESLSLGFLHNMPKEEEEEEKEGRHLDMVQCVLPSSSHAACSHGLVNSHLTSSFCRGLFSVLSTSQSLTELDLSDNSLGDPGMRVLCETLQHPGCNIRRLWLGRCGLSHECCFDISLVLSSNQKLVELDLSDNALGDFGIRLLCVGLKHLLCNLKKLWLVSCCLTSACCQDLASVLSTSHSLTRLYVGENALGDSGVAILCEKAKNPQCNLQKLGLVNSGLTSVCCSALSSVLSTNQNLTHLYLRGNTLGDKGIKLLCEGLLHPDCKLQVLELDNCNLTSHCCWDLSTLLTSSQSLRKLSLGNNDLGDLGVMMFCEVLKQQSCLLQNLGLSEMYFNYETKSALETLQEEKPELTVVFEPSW
Format: cell-based
Parameters: endogenous in cells
Procedure: (§1) The following assays can be used to determine the inhibitory activity of test compounds on the NLRP3 inflammasome using common stimuli nigericin (Invivogen) or monosodium urate crystals (MSU)(Invivogen).
(§2) Human monocyte-like cells are cultured in RPM11640 Glutamax medium supplemented with 10% heat inactivated FCS and 50 U/ml penicillin-streptomycin (Life Technologies). HMDM (Human Monocyte Derived Macrophage) are isolated from human blood with leucosep tubes and classical monocyte isolation kit from Miltenyi based on negative selection.
(§3) NLRP3 inflammasome activation assays Human monocyte-like cells are seeded at 75000 per well in a 96 well plate and differentiated overnight into macrophages with 10 ng/ml PMA (Phorbol Myristate Acetate). The following day, medium containing 10 ng/ml LPS (lipopolysaccharide) is added. After 3 h of LPS priming, concentrations of test compound in the range from 100 μM to 6 nM are added 30 min prior to NLRP3 inflammasome stimulation with Nigericin 3.75 μM or MSU 150 μg/ml for 3 h.
(§4) For IL-1β quantification, supernatants are analyzed using AlphaLISA kits according to the manufacturer's instructions (Perkin Elmer AlphaLISA AL220F).
(§5) IC50 (concentration corresponding to 50% inhibition) were determined using GraphPad Prism 8.
An IC50 of 1000 to 10000 nM was found for COC(=O)c1ccc2c(c1)S(=O)(=NC(=O)Nc1c3c(cc4c1CCC4)CCC3)NC2=O (stereo not shown) [Example 9] in this work.
An IC50 of 1000 to 10000 nM was found for O=C(Nc1c(Br)ccc2c1CCO2)NS1(=O)=NC(=O)c2sccc21 (single isomer, unassigned) [Example 56] in this work.
An IC50 of under 1000 nM was found for O=C(Nc1c2c(cc3c1CCC3)CCC2)NS1(=O)=NC(=O)c2cc(Br)ccc21 (single isomer, unassigned) [Example 58] in this work.
An IC50 of under 1000 nM was found for O=C(N=S1(=O)NC(=O)c2cccnc21)Nc1c2c(cc3c1CCC3)CCC2 (single isomer, unassigned) [Example 32] in this work.
An IC50 of under 1000 nM was found for O=C(Nc1c2c(cc3c1CCC3)CCC2)NS1(=O)=NC(=O)c2cc(Br)ccc21 (stereo not shown) [Example 23] in this work.
An IC50 of under 1000 nM was found for COc1cc(-c2cc(F)cc(C(C)C)c2NC(=O)NS2(=O)=NC(=O)c3sccc32)ccn1 (single isomer, unassigned) [Example 51] in this work.
An IC50 of under 1000 nM was found for O=C(Nc1c2c(cc3c1CCC3)CCC2)NS1(=O)=NC(=O)c2cc(Cl)ccc21 (single isomer, unassigned) [Example 44] in this work.
An IC50 of under 1000 nM was found for O=C(Nc1c2c(cc3c1CCC3)CCC2)NS1(=O)=NC(=O)c2ccc(Cl)cc21 (stereo not shown) [Example 13] in this work.
An IC50 of under 1000 nM was found for N#Cc1ccc2c(c1)C(=O)N=S2(=O)NC(=O)Nc1c2c(cc3c1CCC3)CCC2 (stereo not shown) [Example 10] in this work.
An IC50 of under 1000 nM was found for COc1cc(-c2ccc3c(c2NC(=O)NS2(=O)=NC(=O)c4sccc42)CCC3)ccn1 (single isomer, unassigned) [Example 53] in this work.
An IC50 of under 1000 nM was found for Cc1cccc2c1C(=O)N=S2(=O)NC(=O)Nc1c2c(cc3c1CCC3)CCC2 (single isomer, unassigned) [Example 46] in this work.
An IC50 of under 1000 nM was found for O=C(Nc1c2c(cc3c1CCC3)CCC2)NS1(=O)=NC(=O)c2ccc(F)cc21 (stereo not shown) [Example 28] in this work.
An IC50 of under 1000 nM was found for O=C(Nc1c2c(cc3c1CCC3)CCC2)NS1(=O)=NC(=O)c2ccc(Cl)cc21 (single isomer, unassigned) [Example 45] in this work.
An IC50 of under 1000 nM was found for O=C(Nc1c2c(cc3c1CCC3)CCC2)NS1(=O)=NC(=O)c2c(Cl)cccc21 (single isomer, unassigned) [Example 43] in this work.
An IC50 of under 1000 nM was found for CC(C)c1ccc2c(c1NC(=O)NS1(=O)=NC(=O)c3sccc31)CCO2 (single isomer, unassigned) [Example 49] in this work.
An IC50 of under 1000 nM was found for COc1ccc2c(c1)C(=O)N=S2(=O)NC(=O)Nc1c2c(cc3c1CCC3)CCC2 (stereo not shown) [Example 22] in this work.
An IC50 of under 1000 nM was found for Cc1cccc2c1C(=O)N=S2(=O)NC(=O)Nc1c2c(cc3c1CCC3)CCC2 (single isomer, unassigned) [Example 47] in this work.
An IC50 of 1000 to 10000 nM was found for O=C(Nc1c2c(cc3c1CCC3)CCC2)NS1(=O)=NC(=O)c2ncccc21 (single isomer, unassigned) [Example 39] in this work.
An IC50 of under 1000 nM was found for COc1ccc2c(c1)S(=O)(NC(=O)Nc1c3c(cc4c1CCC4)CCC3)=NC2=O (stereo not shown) [Example 15] in this work.
An IC50 of under 1000 nM was found for O=C(N=S1(=O)NC(=O)c2ccc(C(F)(F)F)cc21)Nc1c2c(cc3c1CCC3)CCC2 (stereo not shown) [Example 27] in this work.
An IC50 of under 1000 nM was found for COc1cc(-c2cc(F)cc(C(C)C)c2NC(=O)NS2(=O)=NC(=O)c3sccc32)ccn1 (stereo not shown) [Example 17] in this work.
An IC50 of 1000 to 10000 nM was found for O=C(Nc1c2c(cc3c1CCC3)CCC2)NS1(=O)=NC(=O)c2cc(Br)ccc21 (single isomer, unassigned) [Example 59] in this work.
An IC50 of 1000 to 10000 nM was found for COc1cc(-c2ccc3c(c2NC(=O)NS2(=O)=NC(=O)c4sccc42)CCC3)ccn1 (single isomer, unassigned) [Example 52] in this work.

These compounds were tested against T1, NLRP3 inflammasome (assay: NLRP3 inflammasome activation assay, IL-1 beta release, human monocyte-like cells, Nigericin stimulation). Conditions: PMA-differentiated, LPS-primed human monocyte-like cells; Nigericin 3.75 μM 3 h; IL-1β by AlphaLISA.
Format: cell-based
Parameters: endogenous in cells
Procedure: as §1, §2, §3, §4, §5
An IC50 of 1000 to 10000 nM was found for COC(=O)c1ccc2c(c1)S(=O)(=NC(=O)Nc1c3c(cc4c1CCC4)CCC3)NC2=O (stereo not shown) [Example 9] in this work.
An IC50 of 10000 to 30000 nM was found for O=C(Nc1c(Br)ccc2c1CCO2)NS1(=O)=NC(=O)c2sccc21 (single isomer, unassigned) [Example 56] in this work.
An IC50 of 1000 to 10000 nM was found for O=C(Nc1c2c(cc3c1CCC3)CCC2)NS1(=O)=NC(=O)c2cc(Br)ccc21 (single isomer, unassigned) [Example 58] in this work.
An IC50 of 1000 to 10000 nM was found for O=C(N=S1(=O)NC(=O)c2cccnc21)Nc1c2c(cc3c1CCC3)CCC2 (single isomer, unassigned) [Example 32] in this work.
An IC50 of 1000 to 10000 nM was found for O=C(Nc1c2c(cc3c1CCC3)CCC2)NS1(=O)=NC(=O)c2cc(Br)ccc21 (stereo not shown) [Example 23] in this work.
An IC50 of under 1000 nM was found for COc1cc(-c2cc(F)cc(C(C)C)c2NC(=O)NS2(=O)=NC(=O)c3sccc32)ccn1 (single isomer, unassigned) [Example 51] in this work.
An IC50 of 1000 to 10000 nM was found for O=C(Nc1c2c(cc3c1CCC3)CCC2)NS1(=O)=NC(=O)c2cc(Cl)ccc21 (single isomer, unassigned) [Example 44] in this work.
An IC50 of 1000 to 10000 nM was found for O=C(Nc1c2c(cc3c1CCC3)CCC2)NS1(=O)=NC(=O)c2ccc(Cl)cc21 (stereo not shown) [Example 13] in this work.
An IC50 of 1000 to 10000 nM was found for N#Cc1ccc2c(c1)C(=O)N=S2(=O)NC(=O)Nc1c2c(cc3c1CCC3)CCC2 (stereo not shown) [Example 10] in this work.
An IC50 of under 1000 nM was found for COc1cc(-c2ccc3c(c2NC(=O)NS2(=O)=NC(=O)c4sccc42)CCC3)ccn1 (single isomer, unassigned) [Example 53] in this work.
An IC50 of 1000 to 10000 nM was found for Cc1cccc2c1C(=O)N=S2(=O)NC(=O)Nc1c2c(cc3c1CCC3)CCC2 (single isomer, unassigned) [Example 46] in this work.
An IC50 of 1000 to 10000 nM was found for O=C(Nc1c2c(cc3c1CCC3)CCC2)NS1(=O)=NC(=O)c2ccc(F)cc21 (stereo not shown) [Example 28] in this work.
An IC50 of 1000 to 10000 nM was found for O=C(Nc1c2c(cc3c1CCC3)CCC2)NS1(=O)=NC(=O)c2ccc(Cl)cc21 (single isomer, unassigned) [Example 45] in this work.
An IC50 of 1000 to 10000 nM was found for O=C(Nc1c2c(cc3c1CCC3)CCC2)NS1(=O)=NC(=O)c2c(Cl)cccc21 (single isomer, unassigned) [Example 43] in this work.
An IC50 of 1000 to 10000 nM was found for CC(C)c1ccc2c(c1NC(=O)NS1(=O)=NC(=O)c3sccc31)CCO2 (single isomer, unassigned) [Example 49] in this work.
An IC50 of 1000 to 10000 nM was found for COc1ccc2c(c1)C(=O)N=S2(=O)NC(=O)Nc1c2c(cc3c1CCC3)CCC2 (stereo not shown) [Example 22] in this work.
An IC50 of 1000 to 10000 nM was found for Cc1cccc2c1C(=O)N=S2(=O)NC(=O)Nc1c2c(cc3c1CCC3)CCC2 (single isomer, unassigned) [Example 47] in this work.
An IC50 of 1000 to 10000 nM was found for O=C(Nc1c2c(cc3c1CCC3)CCC2)NS1(=O)=NC(=O)c2ncccc21 (single isomer, unassigned) [Example 39] in this work.
An IC50 of under 1000 nM was found for COc1ccc2c(c1)S(=O)(NC(=O)Nc1c3c(cc4c1CCC4)CCC3)=NC2=O (stereo not shown) [Example 15] in this work.
An IC50 of 1000 to 10000 nM was found for O=C(N=S1(=O)NC(=O)c2ccc(C(F)(F)F)cc21)Nc1c2c(cc3c1CCC3)CCC2 (stereo not shown) [Example 27] in this work.
An IC50 of under 1000 nM was found for COc1cc(-c2cc(F)cc(C(C)C)c2NC(=O)NS2(=O)=NC(=O)c3sccc32)ccn1 (stereo not shown) [Example 17] in this work.
An IC50 of 1000 to 10000 nM was found for O=C(Nc1c2c(cc3c1CCC3)CCC2)NS1(=O)=NC(=O)c2cc(Br)ccc21 (single isomer, unassigned) [Example 59] in this work.
An IC50 of 1000 to 10000 nM was found for COc1cc(-c2ccc3c(c2NC(=O)NS2(=O)=NC(=O)c4sccc42)CCC3)ccn1 (single isomer, unassigned) [Example 52] in this work.

From US20220378801A1, “NOVEL COMPOUNDS” (AC Immune SA, priority 2019, published 2022)
